Literature values, collected in patent US20190142336A1, “SYSTEMS AND METHODS FOR DETERMINING RESPONSE TO ANESTHETIC AND SEDATIVE DRUGS USING MARKERS OF BRAIN FUNCTION” (THE GENERAL HOSPITAL CORPORATION, priority 2016, published 2019).

Experiments:
[1] = system: dopamine and norepinephrine reuptake transporters
[2] = plethysmography and blood gas

Compound	behavioral and respiratory effects induced by methylphenidate ([1]; given against methylphenidate-induced arousal)	minute ventilation [2]	emergence from general anesthesia ([1]; isoflurane general anesthesia)
O=C(CCCN1CC=C(n2c(=O)[nH]c3ccccc32)CC1)c1ccc(F)cc1 [droperidol]	inhibited		
COC(=O)C(c1ccccc1)C1CCCCN1 (stereo not drawn) [methylphenidate]		increases minute ventilation	actively induces emergence
